Marks after values point to notes of the source that are not given here.
Columns and labels:
[1] = tested on: Mäuse; experiment: Light/dark box test ("Hell-Dunkel-Box"), frequency of compartment changes; format: in vivo; conditions: for Anzahl der Feldwechsel im Vergleich zur Vehikel-Kontrolle / Wechselhäufigkeit in der "Hell-Dunkel-Box": single dose; for Anzahl der Feldwechsel im Vergleich zur Vehikel-Kontrolle: tested after 60 min, observed 3 min; for Erkundungsverhalten ("exploratory behavior"): oral application in mice; for Erkundungsverhalten ("exploratory behavior") / Wechselhäufigkeit in der "Hell-Dunkel-Box": result in words; for Wechselhäufigkeit in der "Hell-Dunkel-Box": oral
Excerpt: Die aktivitätssteigernde Wirkung der Isorhamnetintriglycoside 2, 3 und 4 wurde an Versuchstieren im sogenannten "Hell-Dunkel-Box" System getestet.
Das Prinzip des verwendeten Testsystems beruht darauf, dass Mäuse einem Verhaltensparadigma ausgesetzt werden, das zwei gegensätzliche Verhaltensmuster aktiviert. Die Box besteht aus zwei Kompartimenten von denen ein kleinerer dunkler Teil von einem hellen und größeren Teil durch eine Wand getrennt wird. In der Mitte der Wand befindet sich eine kleine Öffnung, die es dem Versuchstier ermöglicht zwischen den beiden Kompartimenten zu wechseln. Der Versuch beginnt mit dem Einsetzen der Maus in das helle Feld. Das angeborene Dunkelpräferenzverhalten führt dazu, dass die Tiere nach einer kurzen Latenzzeit in das dunkle -sichere Kompartiment wechseln. Nach kurzer Zeit führt aber das ebenso stark ausgeprägte Neugierverhalten (Erkundungsverhalten) dazu, dass die Mäuse wieder in das helle Kompartiment wechseln. Somit stehen zwei angeborene Verhaltensweisen, nämlich die Dunkelpräferenz (Vermutlich als Schutz vor Beutegreifern) und das Erkundungsverhalten (wichtig für Nahrungssuche, Partnersuche) im Konflikt, die für eine Dauer von 3 Minuten aufgezeichnet werden. Arzneimittel, die beruhigende pharmakologische Effekte haben, führen zu einer Verminderung der Wechselhäufigkeit zwischen den Kompartimenten, während Arzneimittel mit stimulierenden Aktivitäten die Wechselhäufigkeit steigern. Die Wechselhäufigkeit ist somit ein Index für aktivitätsgesteuertes Erkundungsverhalten als Zeichen einer Habituation (M. Bourin, and M. Hascoet, "The mouse light/dark box test", Eur. J. Pharmacol. 463 (2003) 55 - 65). Die Versuchsanordnung betrachtet somit Verhaltensparameter, die geeignet sind das Maß an Aktivität zu messen und zu bewerten.
Um die aktivitätssteigernden Effekte der Isorhamnetintriglycoside 2, 3 und 4 zu testen wurden Mäuse einmalig mit verschieden hohen Dosierungen der Flavone behandelt. Zum Vergleich wurden einige Tiere entweder mit dem sedierenden Benzodiazepin Lorazepam oder mit dem aktivitätssteigernden Präparat Methamphetamin oder mit einer wirkungslosen Kontrolllösung behandelt. Nach 60 Minuten wurden die Tiere in das helle Kompartiment der "Hell-Dunkel-Box" gesetzt und über einen Zeitraum von 3 Minuten beobachtet. Als Maß der Aktivität wurde die Häufigkeit der Feldwechsel gemessen. […] Tabelle 2: Wirkung der Isorhamnetintriglycoside 2 und 3 im Vergleich zum Anxiolytikum Lorazepam. Gemessen wird die Anzahl der Feldwechsel im Vergleich zur Vehikel-Kontrolle.

[2] = tested on: Hippocampus Schnittpräparaten; experiment: Long-term potentiation (LTP) in hippocampal slice preparations, POP spikes; format: cell-based, Wistar-Ratten; conditions: result in words; for Langzeitpotenzierung: rat brain slice preparations, compared with buffer solution; for Reizantwort nach LTP-Stimulation: size of POP spikes after repeated LTP induction, compared with solvent
Excerpt: Um den Einfluss der Isorhamnetintriglycoside 2 und 4 auf mentale Funktionen zu testen wurde die Induktion der sogenannten Langzeitpotenzierung (LTP) verwendet. In Hirnschnitt-Präparaten von Wirbeltieren dient LTP als zelluläres Modell für Lernvorgänge, vor allem im Arbeitsgedächtnis (T. V. P. Bliss, and G. L. Collingridge, "A synaptic model of memory: Long-term potentiation in the hippocampus", Nature 361 (1993) 31 - 39). Durch wiederholte Reizung von Neuronen wird eine langandauernde Verstärkung der synaptischen Übertragung induziert, die durch eine Stabilisierung oder Aktivierung sogenannter ruhender Synapsen ("silent synapses) zu einer Neubildung von Verschaltungsmustern zustande kommt (Lernen). Die am besten untersuchte Region des Gehirns für LTP Messungen ist der Hippocampus, der für die Verarbeitung von Lernvorgängen eine zentrale Rolle spielt, allerdings findet LTP auch in anderen Hirnregionen statt (G. A. Kerchner, and R.A. Nicoll, "Silent synapses and the emergence of a postsynaptic mechanism for LTP", Nat. Rev. Neurosci. 9 (2008) 813 - 825). Bei Ratten und anderen Nagern ist die Langzeitpotenzierung insbesondere mit der Ausbildung des räumlichen Lernens assoziiert (J. R. Whitlock, A. J. Heynen, M. G. Shuler, and M. F. Bear, "Learning induced long-term potentiation in the hippocampus", Science 313 (2006) 1093 - 1097).
Die Experimente wurden an Hippocampus Schnittpräparaten von 8-12 Wochen alten weiblichen Wistar-Ratten durchgeführt. Die Hirnschnitte werden bei 35°C in einer Messkammer gehalten und mit einer Nährlösung perfundiert. Glasmikroelektroden werden im dendritischen Bereich des Stratum pyramidale (CA1) platziert um "Population Spikes" (POP-Spikes) zu registrieren. Die Schaffer-Kollateralen werden mit bipolaren Reizelektroden aus Platin-Draht stimuliert und die resultierenden Aktionspotentiale (POP Spikes) gemessen. Der eigentliche Versuch beginnt nach einer Äquilibrierungszeit von 60 Minuten in welcher die Hirnschnitte nicht manipuliert werden. Anschließend werden die Elektroden platziert und begonnen die Schaffer Kollateralen mit steigender Stromstärke zu stimulieren. Nach Erreichen der maximalen Reizantwort wird die Stromstärke so reduziert, dass nur noch 50% der maximal möglichen Reizstärke erreicht werden. Dadurch kann im späteren Versuch überprüft werden ob eine Verstärkung der Reizantwort möglich ist. Anschließend wird alle 10 Sekunden mit der submaximalen Reizstärke stimuliert und die POP Spikes registriert. Die erste LTP-Induktion beginnt mit einer repetitiven Reizung (100 Hz für 1 Sekunde). Der 1. Stimulation folgt die erneute Einzelstimulation (alle 10 Sekunden ein submaximaler Reiz) für zehn Minuten. Diese erste Stimulation dient der Überprüfung, ob der Hirnschnitt eine Reizantwort auf die LTP-Induktion zeigt. […]

## O=C1Nc2ccc(Cl)cc2C(c2ccccc2Cl)=NC1O (centres unmarked) [Lorazepam]
[1]; 0,3 mg/kg po
  Anzahl der Feldwechsel im Vergleich zur Vehikel-Kontrolle: -46 % der Kontrolle

## COc1cc(-c2oc3cc(O)cc(O)c3c(=O)c2O[C@@H]2O[C@H](CO[C@@H]3O[C@@H](C)[C@H](O)[C@@H](O)[C@H]3O)[C@H](O)[C@H](O)[C@H]2O[C@@H]2OC[C@@H](O)[C@H](O)[C@H]2O)ccc1O [Verbindung 2, 3-[(O-6-Deoxy-α-L-mannopyranosyl-(1→6)-O-[ß-D-xylopyranosyl-(1→2)]-ß-D-galactopyranosyl)oxy]-5,7-dihydroxy-2-(4-hydroxy-3-methoxy-phenyl)-4H-1-benzopyran-4-on]
[1]; 10 mg/kg po
  Anzahl der Feldwechsel im Vergleich zur Vehikel-Kontrolle: +100 # % der Kontrolle
[1]; 30 mg/kg po
  Anzahl der Feldwechsel im Vergleich zur Vehikel-Kontrolle: +38 % der Kontrolle
[1]
  Erkundungsverhalten ("exploratory behavior"): deutlichen, dosisabhängigen und statistisch signifikantem Ansteigen des Erkundungsverhaltens
[1]; 30 mg/kg
  Wechselhäufigkeit in der "Hell-Dunkel-Box": geht dieser Effekt verloren
[1]; 3 und 10 mg/kg
  Wechselhäufigkeit in der "Hell-Dunkel-Box": deutlichen, signifikanten Steigerung der Wechselhäufigkeit
[2]
  Langzeitpotenzierung: deutlich gesteigert
  Reizantwort nach LTP-Stimulation: deutliche Steigerung der Reizantwort

## COc1cc(-c2oc3cc(O)cc(O)c3c(=O)c2O[C@@H]2O[C@H](CO[C@@H]3O[C@@H](C)[C@H](O)[C@@H](O)[C@H]3O)[C@@H](O)[C@H](O)[C@H]2O[C@@H]2OC[C@@H](O)[C@H](O)[C@H]2O)ccc1O [Verbindung 4, 3-[(O-6-Deoxy-α-L-mannopyranosyl-(1→6)-O-[ß-D-xylopyranosyl-(1→2)]-ß-D-glucopyranosyl)oxy]-5,7-dihydroxy-2-(4-hydroxy-3-methoxyphenyl)-4H-1-benzopyran-4-on]
[2]
  Langzeitpotenzierung: deutlich gesteigert
  Reizantwort nach LTP-Stimulation: deutliche Steigerung der Reizantwort

## CNC(C)Cc1ccccc1 (centres unmarked) [Methamphetamin]
[1]; 0,3 mg/kg peroral
  Wechsel Anzahl: 7,5 ± 2,1
  Wechsel Prozent der Kontrolle: +7%
[1]; 1,0 mg/kg peroral
  Wechsel Anzahl: 10,6 ± 1,6
  Wechsel Prozent der Kontrolle: +51%
[1]; 3,0 mg/kg peroral
  Wechsel Anzahl: 10,9 ± 3,3
  Wechsel Prozent der Kontrolle: +56%
[1]; 10,0 mg/kg peroral
  Wechsel Anzahl: 0,6 ± 1,2
  Wechsel Prozent der Kontrolle: -91%

## COc1cc(-c2oc3cc(O)cc(O)c3c(=O)c2O[C@@H]2O[C@H](CO[C@@H]3O[C@@H](C)[C@H](O[C@@H]4O[C@@H](C)[C@H](O)[C@@H](O)[C@H]4O)[C@@H](O)[C@H]3O)[C@@H](O)[C@H](O)[C@H]2O)ccc1O [Verbindung 3, 3-[(O-6-Deoxy-α-L-mannopyranosyl-(1→4)-O-6-deoxy-α-L-mannopyranosyl-(1→6)-ß-D-glucopyranosyl)oxy]-5,7-dihydroxy-2-(4-hydroxy-3-methoxyphenyl)-4H-1-benzopyran-4-on]
[1]; 3 mg/kg po
  Anzahl der Feldwechsel im Vergleich zur Vehikel-Kontrolle: +15 % der Kontrolle
[1]
  Erkundungsverhalten ("exploratory behavior"): deutlichen, dosisabhängigen und statistisch signifikantem Ansteigen des Erkundungsverhaltens

From patent EP2533787B1, “USE OF ISORHAMNETIN TRIGLYCOSIDES” (Dr. Willmar Schwabe GmbH & Co. KG, priority 2010, dated 2011)
